Data taken from patent US8580811B2 (Ligand Pharmaceuticals Incorporated, priority 2005, dated 2013).

The molecules below were run against T1, human AR (Homo sapiens, UniProt P10275) (assay: IR Binding Assay: whole cell competitive binding of test compounds against 3H-DHT in COS-1 cells transfected with pRShAR). Settings: not given.
T1 construct: expressed in transfected cells; host or cells: COS-1 cells
T1 sequence (P10275 1-920): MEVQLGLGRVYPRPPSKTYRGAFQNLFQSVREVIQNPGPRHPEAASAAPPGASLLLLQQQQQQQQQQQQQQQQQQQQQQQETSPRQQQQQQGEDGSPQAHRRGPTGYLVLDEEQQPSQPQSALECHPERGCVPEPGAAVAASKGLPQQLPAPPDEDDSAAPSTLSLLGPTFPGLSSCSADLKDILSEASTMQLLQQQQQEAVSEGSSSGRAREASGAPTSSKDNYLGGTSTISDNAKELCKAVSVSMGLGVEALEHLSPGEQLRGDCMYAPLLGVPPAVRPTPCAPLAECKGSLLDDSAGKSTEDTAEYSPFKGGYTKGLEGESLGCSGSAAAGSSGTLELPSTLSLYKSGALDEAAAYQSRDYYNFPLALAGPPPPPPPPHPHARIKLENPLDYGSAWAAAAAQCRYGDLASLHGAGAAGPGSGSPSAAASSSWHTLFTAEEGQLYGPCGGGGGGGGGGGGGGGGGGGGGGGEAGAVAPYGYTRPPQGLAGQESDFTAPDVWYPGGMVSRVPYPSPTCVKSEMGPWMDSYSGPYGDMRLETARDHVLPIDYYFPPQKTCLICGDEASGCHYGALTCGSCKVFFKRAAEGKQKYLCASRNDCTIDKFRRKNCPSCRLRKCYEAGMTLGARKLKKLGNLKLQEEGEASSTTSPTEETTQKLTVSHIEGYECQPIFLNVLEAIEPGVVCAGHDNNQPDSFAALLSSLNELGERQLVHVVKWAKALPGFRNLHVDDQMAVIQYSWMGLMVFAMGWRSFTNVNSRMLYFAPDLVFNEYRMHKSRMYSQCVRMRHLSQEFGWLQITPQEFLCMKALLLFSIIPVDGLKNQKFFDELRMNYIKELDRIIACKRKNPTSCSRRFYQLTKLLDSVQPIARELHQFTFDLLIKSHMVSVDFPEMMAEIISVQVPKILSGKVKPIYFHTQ
How it was run: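 COS-1 cells transfected with pRShAR plus β-Gal reporter, serum-starved 24 h, then exposed to 1 nM ³H-DHT with compounds at 10^−10 to 10^−6 M for 3 h at 37 °C. Bound ³H-DHT counted in lysates, normalized to β-Gal. IC50 from log-logit plot; Ki via Cheng-Prusoff using Kd from Scatchard saturation analysis.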
`Cc1ccc(-c2c(C)c3c4c(Cl)cc(=O)[nH]c4ccc3n2C[C@@H](O)C(F)(F)F)o1` [Compound 284, (R)-9-Chloro-1-methyl-2-(5-methylfuran-2-yl)-3-(3,3,3-trifluoro-2-hydroxy-propyl)-3,6-dihydro-pyrrolo[3,2-f]quinolin-7-one] showed a Ki of less than 5 nM.
Molecule `CC1c2c(ccc3[nH]c(=O)cc(Cl)c23)N(CC(F)(F)F)C1c1cccc(Br)c1` (racemic) [Compound 153, (±)-2-(3-Bromophenyl)-9-chloro-1-methyl-3-(2,2,2-trifluoroethyl)-1,2,3,6-tetrahydro-pyrrolo[3,2-f]quinolin-7-one] has a Ki greater than 10 nM.
In the case of `CCC1c2c(ccc3[nH]c(=O)cc(Cl)c23)N(CC(F)(F)F)C1c1ccccc1` (racemic) [Compound 160, (±)-9-Chloro-1-ethyl-2-phenyl-3-(2,2,2-trifluoroethyl)-1,2,3,6-tetrahydro-pyrrolo[3,2-f]-quinolin-7-one], the Ki is reported as greater than 10 nM.
Work on `Cc1c(C)n(CC(F)(F)Cl)c2ccc3[nH]c(=O)cc(C(F)(F)F)c3c12` [Compound 220, 1,2-Dimethyl-3-(2-chloro-2,2-difluoroethyl)-9-trifluoromethyl-3,6-dihydro-pyrrolo[3,2-f]-quinolin-7-one] yielded a Ki of less than 5 nM.
Work on `CCc1c(C)n(CC(F)(F)F)c2ccc3[nH]c(=O)cc(Cl)c3c12` [Compound 185, 9-Chloro-1-ethyl-2-methyl-3-(2,2,2-trifluoroethyl)-3,6-dihydro-pyrrolo[3,2-f]quinolin-7-one] yielded a Ki of less than 5 nM.
Molecule `CC1c2c(ccc3[nH]c(=O)cc(Cl)c23)N(CC(F)(F)F)C1c1ccc(F)cc1` (racemic) [Compound 149, (±)-9-Chloro-2-(4-fluoro-phenyl)-1-methyl-3-(2,2,2-trifluoroethyl)-1,2,3,6-tetrahydro-pyrrolo[3,2-f]quinolin-7-one] has a Ki of 5 to 10 nM.
Molecule `CCc1c(C)c2c3c(Cl)cc(=O)[nH]c3ccc2n1CCC(F)(F)F` [Compound 216, 9-Chloro-2-ethyl-1-methyl-3-(3,3,3-trifluoropropyl)-3,6-dihydro-pyrrolo[3,2-f]quinolin-7-one] has a Ki of less than 5 nM.
Work on `Cc1c(-c2ccco2)n(CC(F)(F)C(F)(F)F)c2ccc3[nH]c(=O)cc(Cl)c3c12` [Compound 261, 9-Chloro-1-methyl-2-(2-furyl)-3-(2,2,3,3,3-pentafluoropropyl)-3,6-dihydro-pyrrolo[3,2-f]quinolin-7-one] yielded a Ki of less than 5 nM.
`Cc1c(-c2cccc(F)c2)n(CC(F)(F)F)c2ccc3[nH]c(=O)cc(Cl)c3c12` [Compound 251, 9-Chloro-2-(3-fluorophenyl)-1-methyl-3-(2,2,2-trifluoroethyl)-3,6-dihydro-pyrrolo[3,2-f]-quinolin-7-one] showed a Ki of less than 5 nM.
`CCc1c(C)c2c3c(C(F)(F)F)cc(=O)[nH]c3ccc2n1CC(F)(F)Cl` [Compound 224, 3-(2-Chloro-2,2-difluoroethyl)-2-ethyl-1-methyl-9-trifluoromethyl-3,6-dihydro-pyrrolo[3,2-f]-quinolin-7-one] gave a Ki of less than 5 nM.
In the case of `Cc1c(-c2cccs2)n(C[C@H](O)C(F)(F)F)c2ccc3[nH]c(=O)cc(Cl)c3c12` [Compound 272, (S)-9-Chloro-1-methyl-2-thiophen-2-yl-3-(3,3,3-trifluoro-2-hydroxy-propyl)-3,6-dihydro-pyrrolo[3,2-f]quinolin-7-one], the Ki is reported as less than 5 nM.
`CCn1c(C)c(C)c2c3c(Cl)cc(=O)[nH]c3ccc21` [Compound 196, 9-Chloro-1,2-dimethyl-3-ethyl-3,6-dihydro-pyrrolo[3,2-f]quinolin-7-one] gave a Ki of less than 5 nM.
`CC1c2c(ccc3[nH]c(=O)cc(Cl)c23)N(CC(F)(F)F)C1c1cccc(C(F)(F)F)c1` (racemic) [Compound 159, (±)-9-Chloro-1-methyl-3-(2,2,2-trifluoroethyl)-2-(3-trifluoromethylphenyl)-1,2,3,6-tetrahydropyrrolo[3,2-f]quinolin-7-one] showed a Ki greater than 10 nM.
For `CC1c2c(ccc3[nH]c(=O)cc(Cl)c23)N(Cc2ccccc2)C1C` (racemic) [Compound 144, (±)-9-Chloro-1,2-dimethyl-3-phenylmethyl-1,2,3,6-tetrahydro-pyrrolo[3,2-f]quinolin-7-one], the Ki was 5 to 10 nM.
`Cc1c(C)n(C[C@@H](O)C(F)(F)F)c2ccc3[nH]c(=O)cc(C(F)(F)F)c3c12` [Compound 244, (+)-1,2-Dimethyl-3-(3,3,3-trifluoro-2-hydroxy-propyl)-9-trifluoromethyl-3,6-dihydro-pyrrolo[3,2-f]-quinolin-7-one] was tested, and the Ki was greater than 10 nM.
Molecule `Cc1c(-c2ccncc2)n(C[C@@H](O)C(F)(F)F)c2ccc3[nH]c(=O)cc(Cl)c3c12` [Compound 283, (R)-9-Chloro-1-methyl-2-(4-pyridyl)-3-(3,3,3-trifluoro-2-hydroxy-propyl)-3,6-dihydro-pyrrolo[3,2-f]quinolin-7-one] has a Ki of 5 to 10 nM.
Work on `CCC1C(C)c2c(ccc3[nH]c(=O)cc(C(F)(F)F)c23)N1CC(F)(F)C(F)(F)F` (racemic) [Compound 179, (±)-2-Ethyl-1-methyl-3-(2,2,3,3,3-pentafluoropropyl)-9-trifluoromethyl-1,2,3,6-tetrahydro-pyrrolo[3,2-f]quinolin-7-one] yielded a Ki of less than 5 nM.
`CCC1C(C)c2c(ccc3[nH]c(=O)cc(C(F)(F)F)c23)N1CC(F)(F)Cl` (racemic) [Compound 178, (±)-3-(2-Chloro-2,2-difluoroethyl)-2-ethyl-1-methyl-9-trifluoromethyl-1,2,3,6-tetrahydro-pyrrolo[3,2-f]quinolin-7-one] gave a Ki of less than 5 nM.
For `CC1c2c(ccc3[nH]c(=O)cc(Cl)c23)N(CC(F)(F)F)C1c1ccc(C(F)(F)F)cc1` (racemic) [Compound 147, (±)-9-Chloro-1-methyl-2-(4-trifluoromethyl-phenyl)-3-(2,2,2-trifluoroethyl)-1,2,3,6-tetrahydro-pyrrolo[3,2-f]quinolin-7-one], the Ki was greater than 10 nM.
For `Cc1c(C)n(CCO)c2ccc3[nH]c(=O)cc(C(F)(F)F)c3c12` [Compound 240, 1,2-Dimethyl-3-(2-hydroxyethyl)-9-trifluoromethyl-3,6-dihydro-pyrrolo[3,2-f]quinolin-7-one], the Ki was greater than 10 nM.
Molecule `Cc1ccc(-c2c(C)c3c4c(Cl)cc(=O)[nH]c4ccc3n2CC(F)(F)F)cc1` [Compound 204, 9-Chloro-1-methyl-2-(4-methylphenyl)-3-(2,2,2-trifluoroethyl)-3,6-dihydro-pyrrolo[3,2-f]-quinolin-7-one] has a Ki of less than 5 nM.
`Cc1c(-c2ncco2)n(CC(F)(F)C(F)(F)F)c2ccc3[nH]c(=O)cc(Cl)c3c12` [Compound 266, 9-Chloro-1-methyl-2-(oxazol-2-yl)-3-(2,2,3,3,3-pentafluoropropyl)-3,6-dihydro-pyrrolo[3,2-f]quinolin-7-one] gave a Ki of less than 5 nM.
For `Cc1c(CCCCl)c2c3c(Cl)cc(=O)[nH]c3ccc2n1CC(F)(F)C(F)(F)F` [Compound 269, 9-Chloro-1-(3-chloropropyl)-2-methyl-3-(2,2,3,3,3-pentafluoropropyl)-3,6-dihydro-pyrrolo[3,2-f]quinolin-7-one], the Ki was greater than 10 nM.
`C#CCn1c(C)c(C)c2c3c(C(F)(F)F)cc(=O)[nH]c3ccc21` [Compound 242, 1,2-Dimethyl-3-(prop-2-ynyl)-9-trifluoromethyl-3,6-dihydro-pyrrolo[3,2-f]quinolin-7-one] gave a Ki of less than 5 nM.

Same assay, conditions: competition with 1 nM 3H-DHT, transfected COS-1 cells, 3 h at 37° C., Cheng-Prusoff from IC50
With `Cc1c(C)n(CC(O)C(F)(F)F)c2ccc3[nH]c(=O)cc(Cl)c3c12` (racemic) [Compound 279, rac-9-Chloro-1,2-dimethyl-3-(3,3,3-trifluoro-2-hydroxy-propyl)-3,6-dihydro-pyrrolo[3,2-f]-quinolin-7-one] the Ki was less than 5 nM.
